One assay concerns Saccharomyces cerevisiae. The experiment in a line: S. cerevisiae Caspase-1/ASC signal blockers IC50, NALP1 inhibitor project selectivity test (AID 488863). The class given is functional, organism-based.
The nature of assay [1]: viability of PTEN-deleted HCT116 cells – cell-based, HCT116 PTEN knockout, dose response (AID 1047).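 Note: HCT116 colon tumor cells with PTEN knocked out; cells exposed to compound for 60 hours before readout; potency for loss of cell viability measured by luminescence.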 The format is functional.
Assay [2] can be described thus: fluconazole-exposed Candida albicans growth modulators – fluorescence, retest, confirmation (AID 2467). The class given is functional, cell-based.
The nature of assay [3]: NIH3T3 cell viability loss – ATP luminescence, mouse fibroblasts, counter-screen, dose response (AID 2010).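 Note: cells exposed to compound for about 90 hours before reading.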 The class given is functional, cell-based. On the technique in general: The purpose of a counterscreen is to sort out artefacts and off-target activity.
A short description of assay [4]: NIH-3T3 fibroblast cytotoxicity, dose response, cytotoxicity control, cell-based, fluorescence, Alamar Blue, secondary assay (AID 2327).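 Note: NIH-3T3 mouse fibroblasts cultured with fluconazole at 8 µg/mL.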 The format is functional. On the technique in general: Resazurin is reduced to fluorescent resorufin, in cell work by metabolically active cells.
A short description of assay [5]: viability of HCT116 lacking mutant beta-catenin – cell-based, human colon tumor, dose response (AID 1045).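 Note: HCT116 colon tumor cells with beta catenin knocked out; cells exposed to compound for 60 hours.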 The format is functional.
Assay [6] in a line: Trypanosoma cruzi growth suppression in host cells – NIH3T3 host cells, beta-gal luminescence, confirmation (AID 2044).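 Note: intracellular parasites grown in NIH/3T3 mouse fibroblasts as host cells; luminescent beta-galactosidase reporter signal from transgenic T. cruzi replicating inside host cells; inhibitors lower the luminescence signal.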 The class given is functional, cell-based.
For assay [7], the target named is Heat shock protein HSP 90-alpha (Homo sapiens, UniProt P07900). The class given is functional, organism-based.
The target in assay [8] is NACHT, LRR and PYD domains-containing protein 1 (Homo sapiens, UniProt Q9C000). The experiment in a line: NALP1 inhibitors in yeast, dose response, luminescent (AID 488860). The format is functional.
Chain of NACHT, LRR and PYD domains-containing protein 1 (Q9C000 1-1212 limits assumed): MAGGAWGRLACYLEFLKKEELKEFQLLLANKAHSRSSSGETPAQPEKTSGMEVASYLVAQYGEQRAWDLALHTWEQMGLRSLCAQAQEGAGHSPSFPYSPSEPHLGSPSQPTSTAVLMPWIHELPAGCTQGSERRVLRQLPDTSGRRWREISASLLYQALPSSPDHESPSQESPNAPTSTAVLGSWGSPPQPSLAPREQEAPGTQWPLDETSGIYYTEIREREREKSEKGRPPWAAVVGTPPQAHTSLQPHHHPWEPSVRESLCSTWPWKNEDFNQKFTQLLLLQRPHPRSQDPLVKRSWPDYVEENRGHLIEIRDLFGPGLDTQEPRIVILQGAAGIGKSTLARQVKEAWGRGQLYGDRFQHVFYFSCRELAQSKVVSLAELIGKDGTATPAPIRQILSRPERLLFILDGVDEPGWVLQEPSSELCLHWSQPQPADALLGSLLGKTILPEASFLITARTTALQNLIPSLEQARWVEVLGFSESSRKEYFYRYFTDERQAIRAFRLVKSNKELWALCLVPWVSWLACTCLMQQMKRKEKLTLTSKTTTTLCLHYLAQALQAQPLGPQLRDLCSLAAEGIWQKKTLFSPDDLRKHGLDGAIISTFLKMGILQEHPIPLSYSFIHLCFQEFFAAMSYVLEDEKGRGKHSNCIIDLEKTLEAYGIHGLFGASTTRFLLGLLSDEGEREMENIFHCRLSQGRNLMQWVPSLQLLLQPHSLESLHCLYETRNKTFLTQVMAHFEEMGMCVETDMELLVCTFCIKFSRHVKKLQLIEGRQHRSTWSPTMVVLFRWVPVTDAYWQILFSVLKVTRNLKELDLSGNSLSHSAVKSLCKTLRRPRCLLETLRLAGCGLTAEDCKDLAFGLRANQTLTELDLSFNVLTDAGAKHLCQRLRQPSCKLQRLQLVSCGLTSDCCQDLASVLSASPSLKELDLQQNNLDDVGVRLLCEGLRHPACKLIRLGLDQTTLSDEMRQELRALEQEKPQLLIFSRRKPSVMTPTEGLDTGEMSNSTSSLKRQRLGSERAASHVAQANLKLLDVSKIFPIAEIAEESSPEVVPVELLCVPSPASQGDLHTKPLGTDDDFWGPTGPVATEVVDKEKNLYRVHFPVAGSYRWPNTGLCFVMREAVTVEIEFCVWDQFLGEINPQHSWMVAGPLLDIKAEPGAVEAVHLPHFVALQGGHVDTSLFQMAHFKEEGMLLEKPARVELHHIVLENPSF
Chain of NACHT, LRR and PYD domains-containing protein 1 (Q9C000 1213-1473 limits assumed): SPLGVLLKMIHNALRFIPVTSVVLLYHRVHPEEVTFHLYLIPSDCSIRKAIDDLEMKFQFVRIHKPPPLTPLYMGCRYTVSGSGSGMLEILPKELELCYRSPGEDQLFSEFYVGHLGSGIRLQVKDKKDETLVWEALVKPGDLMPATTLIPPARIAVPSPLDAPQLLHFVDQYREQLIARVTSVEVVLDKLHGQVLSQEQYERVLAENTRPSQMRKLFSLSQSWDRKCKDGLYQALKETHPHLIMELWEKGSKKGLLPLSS
In assay [9] the target is T1, Rac GTPase-activating protein 1 (Homo sapiens, UniProt Q9H0H5).
T1 sequence (Q9H0H5 whole entry): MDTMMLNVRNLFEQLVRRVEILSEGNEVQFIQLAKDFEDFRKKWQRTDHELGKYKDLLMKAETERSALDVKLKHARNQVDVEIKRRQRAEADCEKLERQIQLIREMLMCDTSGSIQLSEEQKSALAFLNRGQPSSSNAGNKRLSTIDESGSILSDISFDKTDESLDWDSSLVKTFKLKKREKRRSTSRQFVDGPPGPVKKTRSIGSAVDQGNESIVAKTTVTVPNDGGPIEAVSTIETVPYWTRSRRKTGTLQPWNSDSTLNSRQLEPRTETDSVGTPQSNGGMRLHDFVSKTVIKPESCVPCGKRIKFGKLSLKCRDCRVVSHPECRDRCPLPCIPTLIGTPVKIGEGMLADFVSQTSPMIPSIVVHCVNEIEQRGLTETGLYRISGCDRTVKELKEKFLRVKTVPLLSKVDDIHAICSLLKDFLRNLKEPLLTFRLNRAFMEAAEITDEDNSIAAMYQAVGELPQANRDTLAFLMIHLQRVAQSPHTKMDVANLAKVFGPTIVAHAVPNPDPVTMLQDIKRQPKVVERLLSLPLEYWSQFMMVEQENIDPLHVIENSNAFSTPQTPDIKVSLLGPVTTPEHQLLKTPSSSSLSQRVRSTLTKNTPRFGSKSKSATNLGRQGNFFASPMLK
The experiment in a line: blockers of MgcRacGAP-driven Rac1 GTP hydrolysis – biochemical, ADP Hunter fluorescence, primary and confirmatory, confirmation (AID 624330). The class given is functional.

The nature of assay [10]: viability loss in HeLa cells – cytotoxicity control for MgcRacGAP inhibitor project, dose response (AID 624300). The class given is functional.
The target in assay [11] is Phosphoethanolamine/phosphocholine phosphatase (Homo sapiens, UniProt Q8TCT1). The experiment in a line: SAR assay for compounds that inhibit PHOSPHO1. [Related pubchem assays (depositor defined):AID1545, AID1565, AID1574].
Chain of Phosphoethanolamine/phosphocholine phosphatase (Q8TCT1 whole entry): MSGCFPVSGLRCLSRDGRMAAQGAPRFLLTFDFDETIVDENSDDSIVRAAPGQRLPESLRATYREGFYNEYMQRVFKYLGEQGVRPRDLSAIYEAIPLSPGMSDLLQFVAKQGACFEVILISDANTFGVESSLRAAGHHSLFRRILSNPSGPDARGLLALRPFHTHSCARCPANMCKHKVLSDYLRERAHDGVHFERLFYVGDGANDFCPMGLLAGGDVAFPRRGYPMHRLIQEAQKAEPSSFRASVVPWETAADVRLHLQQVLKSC
Assay [12] deals with T2, Alkaline phosphatase, tissue-nonspecific isozyme (Homo sapiens, UniProt P05186).
T2 sequence (P05186 whole entry): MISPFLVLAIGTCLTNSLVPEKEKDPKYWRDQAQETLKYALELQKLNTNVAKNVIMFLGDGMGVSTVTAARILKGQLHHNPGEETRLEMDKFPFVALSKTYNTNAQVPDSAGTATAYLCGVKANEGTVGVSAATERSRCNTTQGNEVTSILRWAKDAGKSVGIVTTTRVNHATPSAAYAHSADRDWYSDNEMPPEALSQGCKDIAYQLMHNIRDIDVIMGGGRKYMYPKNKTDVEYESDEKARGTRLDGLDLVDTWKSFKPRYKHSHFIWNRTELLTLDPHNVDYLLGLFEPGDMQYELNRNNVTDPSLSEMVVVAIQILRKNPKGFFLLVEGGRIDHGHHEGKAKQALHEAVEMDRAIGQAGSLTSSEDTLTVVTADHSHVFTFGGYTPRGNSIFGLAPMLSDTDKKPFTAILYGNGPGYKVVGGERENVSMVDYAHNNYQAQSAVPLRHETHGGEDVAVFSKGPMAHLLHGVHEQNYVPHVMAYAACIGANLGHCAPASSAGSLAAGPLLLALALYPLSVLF
The experiment in a line: potency against alkaline phosphatase TNAP – biochemical, luminescent, dose response, SAR follow-up (AID 1056).

Assay [13] has as its target T3, Mannose-6-phosphate isomerase (Homo sapiens, UniProt P34949).
T3 sequence (P34949 whole entry): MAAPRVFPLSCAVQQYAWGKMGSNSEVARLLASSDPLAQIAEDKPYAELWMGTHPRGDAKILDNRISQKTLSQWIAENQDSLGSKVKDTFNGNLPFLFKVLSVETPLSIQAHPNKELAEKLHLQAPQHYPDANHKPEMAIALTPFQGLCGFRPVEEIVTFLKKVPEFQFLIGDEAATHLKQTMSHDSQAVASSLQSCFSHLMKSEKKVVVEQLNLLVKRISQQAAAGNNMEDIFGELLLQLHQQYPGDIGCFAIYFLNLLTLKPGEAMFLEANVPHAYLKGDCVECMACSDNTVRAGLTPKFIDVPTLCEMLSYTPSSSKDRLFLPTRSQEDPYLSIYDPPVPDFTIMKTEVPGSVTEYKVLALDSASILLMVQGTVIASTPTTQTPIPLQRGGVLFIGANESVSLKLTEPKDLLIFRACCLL
The experiment in a line: Confirmation of compounds inhibiting phosphomannose isomerase (PMI) via a fluorescence intensity assay using a high concentration of mannose 6-phosphate. [Related pubchem assays (depositor defined):AID1209, AID1220, AID1545, AID1553, AID1620].

The target of another assay is T4, Phosphomannomutase 2 (Homo sapiens, UniProt O15305).
T4 sequence (O15305 whole entry): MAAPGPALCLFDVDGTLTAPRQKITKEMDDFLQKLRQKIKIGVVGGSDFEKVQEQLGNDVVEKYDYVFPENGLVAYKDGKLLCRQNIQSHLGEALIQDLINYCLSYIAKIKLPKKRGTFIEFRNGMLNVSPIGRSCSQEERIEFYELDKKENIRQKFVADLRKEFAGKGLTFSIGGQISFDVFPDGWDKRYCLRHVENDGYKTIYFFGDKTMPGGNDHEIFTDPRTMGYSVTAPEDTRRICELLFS
The experiment in a line: Counter screen SAR assay for PMM2 inhibitors via a fluorescence intensity assay. [Related pubchem assays (depositor defined):AID1545, AID1574].

Another assay addresses Beta-galactosidase (Escherichia coli, UniProt Q8VNN2). The experiment in a line: detection-enzyme interference by beta-gal modulators – biochemical, E. coli enzyme, set 3, artefact control for CCR6 antagonist project, dose response (AID 504712). The class given is functional.
Another assay concerns the target Nonstructural protein 1 (Influenza A virus, UniProt Q194T2). The format is functional, Influenza A virus (A/California/07/2009(H1N1)).
Another assay deals with T5, Hexokinase HKDC1 (Homo sapiens, UniProt Q2TB90).
T5 sequence (Q2TB90 whole entry): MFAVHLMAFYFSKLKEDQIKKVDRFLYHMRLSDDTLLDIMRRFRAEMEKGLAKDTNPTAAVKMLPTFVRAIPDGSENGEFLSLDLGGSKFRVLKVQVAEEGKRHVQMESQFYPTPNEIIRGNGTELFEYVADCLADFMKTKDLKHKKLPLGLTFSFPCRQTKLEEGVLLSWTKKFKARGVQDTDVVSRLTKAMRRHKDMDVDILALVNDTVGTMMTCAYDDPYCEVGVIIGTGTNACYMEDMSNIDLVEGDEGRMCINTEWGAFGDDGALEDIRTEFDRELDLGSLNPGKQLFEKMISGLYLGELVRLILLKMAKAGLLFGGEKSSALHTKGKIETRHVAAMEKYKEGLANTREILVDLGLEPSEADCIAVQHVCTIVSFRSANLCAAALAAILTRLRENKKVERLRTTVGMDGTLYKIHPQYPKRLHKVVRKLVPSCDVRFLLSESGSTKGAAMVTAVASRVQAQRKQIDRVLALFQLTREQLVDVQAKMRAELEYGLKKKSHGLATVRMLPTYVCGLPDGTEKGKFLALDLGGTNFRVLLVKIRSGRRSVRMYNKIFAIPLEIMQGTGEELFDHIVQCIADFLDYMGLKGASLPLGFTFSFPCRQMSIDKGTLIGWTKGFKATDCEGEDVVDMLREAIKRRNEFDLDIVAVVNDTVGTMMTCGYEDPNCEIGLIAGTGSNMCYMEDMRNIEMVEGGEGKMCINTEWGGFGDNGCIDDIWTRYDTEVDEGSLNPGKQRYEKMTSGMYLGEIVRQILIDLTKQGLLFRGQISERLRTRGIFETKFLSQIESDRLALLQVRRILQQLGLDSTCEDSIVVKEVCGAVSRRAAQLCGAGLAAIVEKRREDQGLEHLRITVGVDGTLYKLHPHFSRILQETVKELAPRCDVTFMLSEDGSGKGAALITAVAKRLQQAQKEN
The experiment in a line: inhibition of HKDC1 glucose phosphorylation – biochemical, W721R variant, dose response (AID 504729). The format is functional.

The source made the active and inactive calls. A value given as a limit tells only on which side of the number the result lay.

Broadly, the IC50 is the concentration that gives 50% inhibition. Broadly, the EC50 is the concentration that produces a half-maximal response. As a reminder, the AC50 is the concentration at which the activity in the assay is half-maximal. Broadly, the CC50 is the concentration that lowers cell viability or growth by half.

Chain of Beta-galactosidase (Q8VNN2 whole entry): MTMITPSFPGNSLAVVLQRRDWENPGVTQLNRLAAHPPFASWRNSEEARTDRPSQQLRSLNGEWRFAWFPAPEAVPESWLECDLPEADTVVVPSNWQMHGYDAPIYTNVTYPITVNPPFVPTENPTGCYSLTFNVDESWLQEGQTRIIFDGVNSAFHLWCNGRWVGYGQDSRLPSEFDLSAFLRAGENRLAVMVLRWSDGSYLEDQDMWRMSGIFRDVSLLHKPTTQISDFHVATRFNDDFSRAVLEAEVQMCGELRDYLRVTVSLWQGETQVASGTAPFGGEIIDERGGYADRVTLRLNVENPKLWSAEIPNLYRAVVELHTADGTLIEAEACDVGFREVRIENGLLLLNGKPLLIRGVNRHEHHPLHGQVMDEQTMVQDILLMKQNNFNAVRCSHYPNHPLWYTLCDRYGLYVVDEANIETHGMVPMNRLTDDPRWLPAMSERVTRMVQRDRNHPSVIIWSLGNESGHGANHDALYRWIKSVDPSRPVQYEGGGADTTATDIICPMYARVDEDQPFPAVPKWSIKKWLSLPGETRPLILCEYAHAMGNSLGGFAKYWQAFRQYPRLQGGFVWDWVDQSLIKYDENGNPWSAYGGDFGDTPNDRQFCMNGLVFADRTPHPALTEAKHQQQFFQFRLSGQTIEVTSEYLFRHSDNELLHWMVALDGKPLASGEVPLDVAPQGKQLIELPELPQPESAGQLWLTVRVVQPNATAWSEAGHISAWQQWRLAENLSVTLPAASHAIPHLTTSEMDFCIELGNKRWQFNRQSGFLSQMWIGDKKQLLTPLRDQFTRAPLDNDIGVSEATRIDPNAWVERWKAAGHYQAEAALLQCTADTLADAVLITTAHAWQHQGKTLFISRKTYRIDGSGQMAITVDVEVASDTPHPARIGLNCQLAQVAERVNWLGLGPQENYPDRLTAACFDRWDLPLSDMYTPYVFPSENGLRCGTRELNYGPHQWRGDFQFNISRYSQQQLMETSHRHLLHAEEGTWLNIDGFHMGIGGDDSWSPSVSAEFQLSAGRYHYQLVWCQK
Chain of Nonstructural protein 1 (Q194T2 whole entry): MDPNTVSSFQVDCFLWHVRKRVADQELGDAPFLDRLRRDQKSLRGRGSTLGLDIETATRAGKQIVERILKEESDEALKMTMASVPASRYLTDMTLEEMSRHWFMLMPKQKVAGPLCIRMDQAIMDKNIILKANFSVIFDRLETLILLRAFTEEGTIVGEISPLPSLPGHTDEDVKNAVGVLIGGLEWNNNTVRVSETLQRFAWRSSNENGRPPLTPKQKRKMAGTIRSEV

In the case of `Cc1ccc(-n2nnnc2C(Cl)c2nnnn2-c2ccc(C)cc2)cc1`, the IC50 in the assay on Saccharomyces cerevisiae is 6.59 µM (active); in assay [8], 11 µM (active). In addition, the EC50 in assay [1] is 17.6 µM (active); in assay [2], > 38 µM (not active); in assay [3], > 60 µM (not active); in [4], > 160 µM (inactive); in [5], 17.5 µM (active); in assay [6] it was 3.31 µM (active). For the same compound, in [7], the concentration at half-maximal activity (AC50) was 0.635 µM (active).

Consider `COC(=O)c1cccc(-n2sc3ccccc3c2=O)c1`, for which the IC50 was 36.9 µM (active) in [9]; 0.824 µM (active) in assay [11]; > 100 µM (inactive) in assay [12]; 14 µM (active) in assay [13]; 15.4 µM (active) at Phosphomannomutase 2. Also, in assay [10], the CC50 is 100 µM (active).

In the case of `CCOC(=O)C1=C(Cc2ccc(OC)cc2)C(=O)c2ccccc2C1=O`, the IC50 is > 66.6 µM (inactive) on Beta-galactosidase, 42.9 µM (active) on Nonstructural protein 1 and 7.57 µM (active) at Hexokinase HKDC1.

Values taken from ChEMBL document CHEMBL1201862, “PubChem BioAssay data set” (2004).
